Test results published in patent US20090292124A1, “Therapeutic Agent for Nausea and/or Vomiting” (TORAY INDUSTRIES, INC. a corporation of Japan, priority 2005, published 2009).
Marks after values point to notes of the source that are not given here.

Legend:
Type in all cases: in vivo
ferrets = assay: Influence on nausea and vomiting induced by morphine; conditions: test substance 5 mg/kg 30 min before morphine 0.6 mg/kg s.c.; for Appearance Frequency / Duration / Latent Time: mean ± standard error; for Latent Time: no symptom counted as 30 min; for Number of Individuals Presenting Symptoms (Number of Individuals Presenting Symptoms/Number of Cases): observed 30 min
Protocol: About 30 minutes after feeding, ferrets were transferred to observation cages, and the test substances were administered, respectively. Each test substance was dissolved in 5% xylitol, and administered at a dose of 5 mg/kg. Thirty minutes after administration of the test solution, 0.6 mg/kg of morphine was subcutaneously administered at a volume of 1 mL/kg, and the symptoms of vomiting were visually observed until 30 minutes after the administration of morphine.
The appearance frequency, latent time (the time from the administration of morphine to the first appearance of the symptom) and duration (the time from the first vomiting to the final vomiting) of nausea (rhythmical contractile motion of abdomen), of vomiting (vomiting behavior excreting vomit or analogous behavior thereof) and of the total of nausea and vomiting were counted, respectively.

[1] = Test of brain penetration (Test Example 2, oral); conditions: rat, Crj:CD(SD)IGS male rats, non-fasting, 30 mg/kg orally, brain and plasma 2 hours after administration, n=3
Protocol: Crj:CD(SD)IGS male rats of 7-8 weeks of age
Each of the test compounds in an amount of 90 mg was suspended in 0.5% methylcellulose 1500 cp to a total volume of 6 mL.
(§1) Each test compound was orally administered to non-fasting rats (30 mg/2 mL/kg, n=3), and total blood was collected from the lower aorta 2 hours after the administration. An aliquot of the blood was centrifuged (3000 rpm, 10 minutes, 4° C.), and the concentration of unchanged compound in the obtained blood plasma was measured by LC/MS/MS method.
(§2) After the above-described collection of the total blood, the brain was enucleated from each rat, and homogenized to prepare a 25% homogenate, followed by measurement of the concentration of unchanged compound by LC/MS/MS method.
From the obtained concentrations, Kp values were determined.

[2] = Test of brain penetration (Reference Example 1, intravenous); conditions: rat, Jcl-SD male rats, non-fasting, 0.5 mg/kg intravenously, brain and plasma 15 minutes after administration, n=2
Protocol: Jcl-SD male rats of 7 weeks of age
The test compound in an amount of 1.0 mg was dissolved in 0.8 mL of N,N-dimethylacetamide, and 0.8 mL of propylene glycol was added thereto.
as §1, with “The” for “Each”, “intravenously” for “orally”, “(0.5 mg/0.8” for “(30 mg/2”, “n=2) through the tail vein,” for “n=3),”, “15 minutes” for “2 hours”
as §2
From the obtained concentrations, Kp values were determined. As a result, the Kp value of NIT was 1.30.

Compound	Appearance Frequency (ferrets; Nausea + Vomiting)	Duration (ferrets; Nausea + Vomiting) [min]	Latent Time (ferrets; Nausea + Vomiting) [min]	Number of Individuals Presenting Symptoms (Number of Individuals Presenting Symptoms/Number of Cases) (ferrets; Nausea + Vomiting)	Appearance Frequency (ferrets; Nausea)	Duration (ferrets; Nausea) [min]	Latent Time (ferrets; Nausea) [min]	Number of Individuals Presenting Symptoms (Number of Individuals Presenting Symptoms/Number of Cases) (ferrets; Nausea)	Appearance Frequency (ferrets; Vomiting)	Duration (ferrets; Vomiting) [min]	Latent Time (ferrets; Vomiting) [min]	Number of Individuals Presenting Symptoms (Number of Individuals Presenting Symptoms/Number of Cases) (ferrets; Vomiting)	Kp at 2 h [1]	Kp at 0.25 h [2]
Cn1c2c(c3ccccc31)C[C@@]1(O)[C@H]3Cc4ccc(O)c5c4[C@@]1(CCN3CC1CC1)[C@H]2O5 [Compound 1]	0 ± 0	0 ± 0	30 ± 0	0/6##	0 ± 0	0 ± 0	30 ± 0	0/6##	0 ± 0	0 ± 0	30 ± 0	0/6	–	–
CCOC(=O)c1ccc2c3c([nH]c2c1)[C@@H]1Oc2c(O)ccc4c2[C@@]12CCN(CC1CC1)[C@H](C4)[C@]2(O)C3 [Compound 2]	0 ± 0	0 ± 0	30 ± 0	0/6##	0 ± 0	0 ± 0	30 ± 0	0/6##	0 ± 0	0 ± 0	30 ± 0	0/6	0.18	–
Cc1ccc(/C=C2\C[C@@]3(O)[C@H]4Cc5ccc(O)c6c5[C@@]3(CCN4CC3CC3)[C@@H](O6)C2=O)cc1 [Compound 3]	0 ± 0	0 ± 0	30 ± 0	0/6##	0 ± 0	0 ± 0	30 ± 0	0/6##	0 ± 0	0 ± 0	30 ± 0	0/6	0.46	–
Oc1ccc2c3c1O[C@H]1c4[nH]c5ccccc5c4C[C@@]4(O)[C@@H](C2)N(CC2CC2)CC[C@]314 [NIT, naltrindole]	–	–	–	–	–	–	–	–	–	–	–	–	–	1.3
